Values of other authors as cited in patent publication US9782362B2, “Uses of compositions containing a roasted extract and xanthohumol” (TA-XAN AG, priority 2012, dated 2017).
Where two headings read alike, the source gives them in different places.

Tests used:
bacterial culture = details: depending on doses ranging between 0.01 to 10 μM
[1] = mice
[2] = system: bone-resorbing cells (osteoclasts); details: in vitro
[3] = system: Cells in culture or rat liver; details: depending on doses ranging between 0.01 to 10 μM
apoptosis = details: 4-6 mg/kg per day for 60 days in the drinking water
[4] = system: Diacylglycerol acetyltransferase (DGAT); details: in vitro
[5] = system: Human breast tumor cells (MX-1 cells); details: daily subcutaneous 1000 mg/kg
[6] = 4 weeks, female C3H-mice
angiogenesis = details: approx. 1 mg/kg per day three days per os; 4-6 mg/kg per day 60 days drinking water; or 1000 mg/kg subcutaneously
[7] = direct chemical interaction
[8] = up to 100 mg/kg/day per os, 4 weeks
[9] = system: Human breast tumor cells (MXF7 cells); details: daily dose of 4-6 mg/kg in the drinking water; not validated statistically at the 95% level
inflammation = details: oral 4-6 mg/kg per day for 60 days in drinking water
[10] = system: human Kaposi's sarcoma (KS-IMM) cells; details: approx. 1.2 mg/kg for 23 days
[11] = 100 mg/kg/day in drinking water for four weeks, then mated
Estrogen = details: oral three×100 mg/kg over three days
[12] = rat

## COc1cc(O)c(CC=C(C)C)c(O)c1C(=O)/C=C/c1ccc(O)cc1 [xanthohumol]
Bacterial culture
  inhibition of mutagenic damage: up to 100%
[1]
  plasma glucose level: reduction
  triglycerides: reduction
[2]; 1 μM
  inhibition of the resorption of bone: 35%
[2]; 10 μM
  inhibition of the resorption of bone: 94%
[3]
  inhibition of DNA damage: up to 100%
apoptosis
  induction of apoptosis: could be detected
[4]
  DGAT inhibition: inhibition of this enzyme
[5]; in one week
  growth of the tumor inhibited: 46%
[5]; in two weeks
  growth of the tumor inhibited: 83%
[6]; approximately 28 mg/kg/day in drinking water
  development of weight, appearance of organs, haematologically clinical parameters, liver enzyme values, glucose metabolism: uninfluenced
[6]; drinking water 5×10^−4M ad libitum, approximately 28 mg/kg/day
  impact on health: no unfavorable impact
angiogenesis
  anti-angiogenetic action: anti-angiogenetic action
[7]
  interception of DPPH radical: not able to intercept
[8]
  toxicity: no indication of toxicity
[9]
  growth of the tumor inhibited: 35%
inflammation
  effect on inflammation: inhibitive effect on inflammation was also established in vivo
[10]
  growth of the tumor inhibited: 68%
Daily for 4 weeks: 100 mg/kg drinking water, 500 mg/kg in feed, 1000 mg/kg pharyngeal tube
  toxic effects: no toxic effects whatsoever could be determined
high-dose groups (500 mg/kg/day and 1000 mg/kg/day), due to breakdown of glycogen
  weight of the liver: reduction in the weight of the liver
[11]
  influence on fertility or lactation: Neither the pre-treatment of the female animals nor of the males had any influence
Estrogen
  anti-estrogen action: possible to detect anti-estrogen action
[12]
  absorption following oral application: poorly absorbed
[12]; oral
  state in the excrement: largely unchanged
